Test systems include A498; BT-549; CCRF-CEM; COLO 205; HL-60; KM12; M14; MCF7; MOLT-4; NCI-H460; NCI/ADR-RES; OVCAR-4; OVCAR-8; RXF 393; SR; SW-620; T47D; TK-10; UO-31.
Experiment in all cases: NCI-60 cell line screen, 48 h

The values below come from ChEMBL document CHEMBL1201862, “PubChem BioAssay data set” (2004).

Molecules are shown by their SMILES.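 Protocol summary: plate cells (96-well), add compound at 5 concentrations, incubate 48 h, interpolate endpoints linearly. GI50: concentration for 50% inhibition of growth.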 The source made the active and inactive calls. Rule as the data show it: active = GI50 up to about 1.1 µM and inactive = higher.

`CC(C)c1ccc2c(c1)[C@@]1(C)CC[C@H](C)C(C)(C)C1CC2` (some centres undefined): the GI50 is 17.7 µM (inactive) with A498; 20.6 µM (inactive) in the test with BT-549; 23.7 µM (inactive) in the test on CCRF-CEM; 20.1 µM (inactive) in the test on COLO 205; 34.4 µM (inactive) in the test with HL-60; 18 µM (inactive) with KM12. Besides, the GI50 in the test on M14 is 18.9 µM (inactive); in the test on MCF7 it was 17.2 µM (inactive); in the test on MOLT-4, 37 µM (inactive); in the test on NCI-H460, 18.6 µM (inactive); in the test with NCI/ADR-RES, 18.2 µM (inactive); in the test on OVCAR-4, 15.9 µM (inactive). For the same compound, the GI50 in the test on OVCAR-8 is 18.6 µM (inactive); in the test with RXF 393, 17.5 µM (inactive); in the test with SR, 27.5 µM (inactive); in the test on SW-620 it was 47.8 µM (inactive); in the test on T47D it was 26.1 µM (inactive); in the test on TK-10, 17.6 µM (inactive). Besides, the GI50 with UO-31 is 37.9 µM (inactive).

As to `O=C(O)Cc1ccccc1` [PHENYLACETIC ACID], the GI50 with A498 was > 100 µM (inactive); in the test on BT-549, > 1000 µM (inactive); in the test on CCRF-CEM, > 100 µM (inactive); in the test on COLO 205, > 100 µM (inactive); with HL-60 it was > 100 µM (inactive); in the test with KM12, > 100 µM (inactive). Further, the GI50 in the test on M14 was > 100 µM (inactive); in the test on MCF7, > 1000 µM (inactive); in the test on MOLT-4, > 100 µM (inactive); in the test with NCI-H460 it was > 100 µM (inactive); in the test with NCI/ADR-RES, > 100 µM (inactive); with OVCAR-4, > 100 µM (inactive). Further, the GI50 in the test on OVCAR-8 is > 100 µM (inactive); in the test with RXF 393, > 100 µM (inactive); in the test with SR, > 1000 µM (inactive); in the test on SW-620, > 100 µM (inactive); in the test with T47D, > 100 µM (inactive); in the test with TK-10 it was > 100 µM (inactive). Moreover, the GI50 with UO-31 is > 100 µM (inactive).

In the case of `N#CCCN(CCC#N)c1ccc(/C=C2\SC(=S)NC2=O)cc1`, the GI50 is 57.1 µM (inactive) in the test with A498; 31.8 µM (inactive) with BT-549; > 100 µM (inactive) in the test on CCRF-CEM; > 100 µM (inactive) in the test on COLO 205; > 100 µM (inactive) in the test with HL-60; > 100 µM (inactive) in the test with KM12. In addition, the GI50 was > 100 µM (inactive) with M14; > 100 µM (inactive) with MCF7; > 100 µM (inactive) in the test with MOLT-4; > 100 µM (inactive) in the test on NCI-H460; > 100 µM (inactive) in the test with NCI/ADR-RES; 30.8 µM (inactive) in the test on OVCAR-4. Moreover, the GI50 in the test with OVCAR-8 is 44.2 µM (inactive); in the test with RXF 393, 37.9 µM (inactive); in the test with SR, > 100 µM (inactive); with SW-620, > 100 µM (inactive); with T47D, > 100 µM (inactive); with TK-10, 85.3 µM (inactive). In the test on UO-31, the GI50 is > 100 µM (inactive).

`CCOC(=O)C1(Cc2c[nH]c3ccccc23)C(O)CCCN1C(C)=O` (centres undefined): the GI50 in the test on A498, in the test on BT-549, in the test with CCRF-CEM, with COLO 205, with HL-60 and in the test on KM12 was > 100 µM (inactive) throughout. Further, the GI50 with M14, in the test with MCF7, in the test on MOLT-4, in the test on NCI-H460, with NCI/ADR-RES and in the test with OVCAR-4 was > 100 µM (inactive) throughout. Also, the GI50 with OVCAR-8 was > 100 µM (inactive); in the test with RXF 393, > 100 µM (inactive); with SR, 81.5 µM (inactive); in the test on SW-620, > 100 µM (inactive); in the test with T47D, > 100 µM (inactive); in the test on TK-10, > 100 µM (inactive). Further, the GI50 in the test with UO-31 was > 100 µM (inactive).

`C/C(=N\Nc1nc2ccccc2n1C)c1cc2ccccc2cn1`: the GI50 in the test on A498 is 0.194 µM (active); with BT-549, 2.8 µM (inactive); with CCRF-CEM, 0.0161 µM (active); in the test on COLO 205, < 0.01 µM (active); in the test on HL-60, 0.0103 µM (active); in the test with KM12, < 0.025 µM (active). In addition, the GI50 was < 0.0335 µM (active) with M14; < 0.01 µM (active) in the test with MCF7; < 0.01 µM (active) in the test on MOLT-4; 0.0653 µM (active) in the test with NCI-H460; < 0.0182 µM (active) in the test with NCI/ADR-RES; 0.0423 µM (active) with OVCAR-4. The GI50 in the test with OVCAR-8 was < 0.0182 µM (active); in the test on RXF 393 it was 0.229 µM (active); in the test with SR it was < 0.0169 µM (active); in the test with SW-620, < 0.0118 µM (active); with T47D it was < 0.0447 µM (active); in the test with UO-31, < 0.01 µM (active).

As to `O=C1c2ccccc2-c2ccc(NC(=O)C3CCCCC3C(=O)O)cc21` (centres undefined), the GI50 in the test on A498, in the test on BT-549, in the test on CCRF-CEM, in the test with COLO 205, with HL-60 and with KM12 was > 100 µM (inactive) each time. In addition, the GI50 is > 100 µM (inactive) in the test with M14; 85.5 µM (inactive) in the test on MCF7; > 100 µM (inactive) in the test with MOLT-4; > 100 µM (inactive) in the test with NCI-H460; > 100 µM (inactive) in the test on NCI/ADR-RES; > 100 µM (inactive) in the test with OVCAR-4. In addition, the GI50 with OVCAR-8, in the test with RXF 393, with SR, with SW-620, in the test on T47D and with TK-10 was > 100 µM (inactive) throughout. For the same compound, in the test with UO-31, the GI50 was > 100 µM (inactive).

Regarding `Fc1cccc(C2SCC3=Nc4ccccc4CN32)c1` (centres undefined), the GI50 in the test with A498 is > 100 µM (inactive); in the test with BT-549 it was 92.5 µM (inactive); with CCRF-CEM, 29.9 µM (inactive); in the test on COLO 205 it was 28.4 µM (inactive); in the test on HL-60 it was 35.1 µM (inactive); in the test with KM12 it was 95.5 µM (inactive). Besides, the GI50 in the test on M14 is 33.3 µM (inactive); in the test on MCF7 it was 35.4 µM (inactive); with MOLT-4, 37.8 µM (inactive); in the test with NCI-H460, 37.9 µM (inactive); in the test on NCI/ADR-RES, 11 µM (inactive); in the test with OVCAR-4, 95.7 µM (inactive). The GI50 is 27 µM (inactive) with OVCAR-8; 26.8 µM (inactive) in the test with RXF 393; 38.6 µM (inactive) in the test on SR; > 100 µM (inactive) with SW-620; 57.3 µM (inactive) in the test on T47D; 67.8 µM (inactive) in the test with TK-10. Further, the GI50 with UO-31 was 41.5 µM (inactive).

As for `CC(=O)OCC1OC(n2c3c(cc(C#N)c2=S)CCCCC3)C(OC(C)=O)C(OC(C)=O)C1OC(C)=O` (centres undefined), the GI50 in the test on A498, with BT-549, in the test with CCRF-CEM, with COLO 205, in the test with HL-60 and with KM12 was > 100 µM (inactive) each time. Further, the GI50 in the test with M14, with MCF7, in the test with MOLT-4, in the test on NCI-H460, in the test with NCI/ADR-RES and in the test on OVCAR-4 was > 100 µM (inactive) each time. For the same compound, the GI50 with OVCAR-8 was > 100 µM (inactive); in the test on RXF 393, > 100 µM (inactive); in the test on SR, > 100 µM (inactive); in the test on T47D, 29.4 µM (inactive); with TK-10, > 100 µM (inactive); with UO-31, > 100 µM (inactive).

Take `CC(O)c1cc2c(s1)C(=O)c1ccsc1C2=O` (centres undefined): the GI50 in the test with A498 was 1.53 µM (inactive); with BT-549, 0.0815 µM (active); in the test with CCRF-CEM it was 0.259 µM (active); in the test with COLO 205, 1.77 µM (inactive); with HL-60, 0.0144 µM (active); with KM12, 0.508 µM (active). Besides, the GI50 was 0.0593 µM (active) in the test on M14; 0.0457 µM (active) in the test on MCF7; 0.213 µM (active) with MOLT-4; 0.211 µM (active) with NCI/ADR-RES; 0.212 µM (active) with OVCAR-4; 0.22 µM (active) in the test on OVCAR-8. Further, the GI50 in the test with RXF 393 was 0.213 µM (active); with SR, 0.103 µM (active); with SW-620 it was 0.138 µM (active); in the test with T47D, 0.316 µM (active); in the test with TK-10, 0.461 µM (active); in the test on UO-31 it was 0.212 µM (active).

On to `COc1cc(Oc2nc3ccc(C(F)(F)F)cc3nc2-c2ccccc2)cc(OC)c1OC`, for which the GI50 with A498 was 32.9 µM (inactive); with BT-549, 20.2 µM (inactive); in the test with CCRF-CEM, 48.5 µM (inactive); in the test on COLO 205 it was 15.2 µM (inactive); in the test with HL-60, 31.8 µM (inactive); with KM12, 66.2 µM (inactive). Also, the GI50 with MCF7 is 8.18 µM (inactive); in the test on MOLT-4, > 10 µM (inactive); with NCI-H460, 34 µM (inactive); in the test with NCI/ADR-RES it was > 100 µM (inactive); in the test on OVCAR-4 it was 6.58 µM (inactive); with OVCAR-8, 45.8 µM (inactive). Besides, the GI50 in the test with RXF 393 was 11 µM (inactive); in the test on SR, 34 µM (inactive); with SW-620, > 10 µM (inactive); in the test on T47D it was 54.7 µM (inactive); in the test on TK-10, 30.1 µM (inactive); in the test on UO-31 it was > 100 µM (inactive).

With `COc1cc2c(c(N)c1OC)C(=O)/C(=C/c1cc(C)c(O)c(C)c1)C2`, the GI50 in the test on A498 is 7.13 µM (inactive); in the test with BT-549, 9.68 µM (inactive); in the test with CCRF-CEM, < 0.01 µM (active); in the test with COLO 205 it was 5.6 µM (inactive); in the test on HL-60 it was < 0.01 µM (active); in the test with KM12 it was < 0.01 µM (active). Besides, the GI50 in the test on M14 is < 0.01 µM (active); with MCF7, < 0.01 µM (active); with MOLT-4, < 0.01 µM (active); in the test on NCI-H460 it was < 0.01 µM (active); in the test on NCI/ADR-RES, 0.0104 µM (active); with OVCAR-4, 7.91 µM (inactive). Further, the GI50 with OVCAR-8 is < 0.01 µM (active); with RXF 393, 0.0323 µM (active); in the test on SR, < 0.01 µM (active); in the test with SW-620, < 0.01 µM (active); with T47D, > 100 µM (inactive); with TK-10, > 76 µM (inactive).
